Data on 17 compounds can be found in ChEMBL document CHEMBL2346531, “Investigation of σ receptors agonist/antagonist activity through N-(6-methoxytetralin-1-yl)- and N-(6-methoxynaphthalen-1-yl)alkyl derivatives of polymethylpiperidines” (Bioorg Med Chem, 2013).

pEC50, pKi: −log10 of the molar value. Activity calls are given as the source filed them. The rule behind the calls is not given here.

Assay [1] is described as follows: Selectivity ratio of Ki for sigma 2 receptor in Wistar Hannover rat liver membrane to Ki for sigma 1 receptor in Dunkin guinea pig brain membrane without cerebellum. The format is cell membranes.
A short description of assay [2]: Displacement of [3H]DTG from sigma 2 receptor in Wistar Hannover rat liver membrane by competition binding assay. In kind it is cell membranes. For orientation: Loss of bound radioactivity is the signal in a displacement assay; it reports binding, not function.
The target of assay [3] is Sigma non-opioid intracellular receptor 1 (Cavia porcellus, UniProt Q60492). Briefly: Displacement of [3H]pentazocine from sigma 1 receptor in Dunkin guinea pig brain membrane without cerebellum by competition binding assay. The format is cell membranes.
Assay [4] deals with MCF7. Briefly: Antiproliferative activity against human MCF7 cells transfected with human sigma1 receptor after 48 hrs by MTT assay. The format is functional, cell-based. Also on record: Activity: concentration or dose not given beside the values. Conditions: for pEC50: Homo sapiens, MCF7, 48 h. In general terms: Formazan colour is commonly taken as a measure of viable cells.

The test system of assay [5] is MCF7. Briefly: Antiproliferative activity against human MCF7 cells after 48 hrs by MTT assay. The format is functional, cell-based. Conditions: for pEC50: Homo sapiens, MCF7, 48 h.
The test system of assay [6] is MCF7. Put plainly: Activity at sigma 2 receptor in human MCF7 cells assessed as bardykinin-triggered Ca2+ mobilization at 1 uM pretreated for 10 mins measured every 5 secs by fluorescence analysis. In kind it is cell-based. Background: Calcium flux is commonly read through the fluorescence of an indicator in the cells.
The subject of assay [7] is MCF7. Briefly: Activity at sigma 2 receptor in human MCF7 cells assessed as Ca2+ mobilization by fluorescence analysis. In kind it is cell-based.
Assay [8] has as its target Sigma non-opioid intracellular receptor 1 (Homo sapiens) (UniProt Q99720). Briefly: Activity at human sigma 1 receptor transfected in human MCF7 cells assessed as Ca2+ mobilization by fluorescence analysis. In kind it is cell-based.
For assay [9] the target is unchanged. Briefly: Agonist activity at human sigma 1 receptor transfected in human MCF7 cells assessed as increase in bradykinin-triggered Ca2+ response at 1 uM pretreated for 10 mins measured every 5 secs by fluorescence analysis. In kind it is cell-based.
The test system of assay [10] is MCF7. Briefly: Antagonist activity at sigma 2 receptor in human MCF7 cells assessed as effect on bradykinin-triggered Ca2+ response at 1 uM pretreated for 10 mins measured every 5 secs by fluorescence analysis. In kind it is cell-based.
Assay [11] addresses Sigma non-opioid intracellular receptor 1 (Homo sapiens) (UniProt Q99720). Briefly: Agonist activity at human sigma 1 receptor transfected in human MCF7 cells assessed as increase in bradykinin-triggered Ca2+ response at 1 uM pretreated for 10 mins measured every 5 secs by fluorescence analysis in presence of 1 uM sigma 1 receptor antagonist, BD1063. The format is cell-based.

The test system of assay [12] is MCF7. Briefly: Antagonist activity at sigma 2 receptor in human MCF7 cells assessed as effect on bradykinin-triggered Ca2+ response at 10 uM pretreated for 10 mins measured every 5 secs by fluorescence analysis. In kind it is cell-based.
Assay [13] concerns the target Sigma non-opioid intracellular receptor 1 (Homo sapiens) (UniProt Q99720). Put plainly: Antagonist activity at human sigma 1 receptor transfected in human MCF7 cells assessed as decrease in bradykinin-triggered Ca2+ response at 1 uM pretreated for 10 mins measured every 5 secs by fluorescence analysis in presence of 1 uM sigma 1 receptor agonist, (+)-pentazocine. In kind it is cell-based.

Assay [14] has the same target. Briefly: Antagonist activity at human sigma 1 receptor transfected in human MCF7 cells assessed as decrease in bradykinin-triggered Ca2+ response at 1 uM pretreated for 10 mins measured every 5 secs by fluorescence analysis. In kind it is cell-based.
The test system of assay [15] is MCF7. Briefly: Agonist activity at sigma 2 receptor in human MCF7 cells assessed as decrease in bradykinin-induced Ca2+ response at 1 uM pretreated for 10 mins measured every 5 secs by fluorescence analysis in presence of 10 uM sigma 2 receptor antagonist, AC927. In kind it is cell-based.
Assay [16] concerns MCF7. Put plainly: Agonist activity at sigma 2 receptor in human MCF7 cells assessed as decrease in bradykinin-induced Ca2+ response at 1 uM pretreated for 10 mins measured every 5 secs by fluorescence analysis. The format is cell-based.

Chain of Sigma non-opioid intracellular receptor 1 (Q60492 whole entry): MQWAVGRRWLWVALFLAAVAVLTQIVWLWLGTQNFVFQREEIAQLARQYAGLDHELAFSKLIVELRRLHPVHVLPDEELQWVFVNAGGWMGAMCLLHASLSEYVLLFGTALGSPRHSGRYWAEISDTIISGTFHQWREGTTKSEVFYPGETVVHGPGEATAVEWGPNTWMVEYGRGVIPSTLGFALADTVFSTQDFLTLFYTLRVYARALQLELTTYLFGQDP
Chain of Sigma non-opioid intracellular receptor 1 (Homo sapiens) (Q99720 whole entry): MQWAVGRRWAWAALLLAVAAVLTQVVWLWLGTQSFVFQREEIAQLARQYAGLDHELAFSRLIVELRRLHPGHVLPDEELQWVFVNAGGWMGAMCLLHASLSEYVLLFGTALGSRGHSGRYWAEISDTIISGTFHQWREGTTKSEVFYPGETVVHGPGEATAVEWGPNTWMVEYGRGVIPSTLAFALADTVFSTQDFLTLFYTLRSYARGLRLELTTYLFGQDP

Usually pKi stands for the negative decadic logarithm of the Ki, by convention in mol/L. Broadly, the pEC50 is the EC50 on a negative log10 scale, so that one unit is a factor of ten. `COc1ccc2c(CCCN3C(C)(C)CCCC3(C)C)cccc2c1`: in assay [1], the Ratio Ki was found to be 2.1. Besides, the pKi is 6.31 in assay [2] and 6.63 in assay [3]. In addition, the pEC50 in the assay with MCF7 [4] and in the assay on MCF7 [5] was less than 4.00 each time.
Turning to `CC(C)=CCN1CC[C@]2(C)c3cc(O)ccc3C[C@H]1[C@H]2C` [(+)-PENTAZOCINE], the pEC50 in the assay with MCF7 [4] and in the assay with MCF7 [5] was less than 4.00 in each case. In the assay with MCF7 [6], the result was inactive.
In the case of `COc1ccc2c(c1)CCCC2CCCCN1C(C)(C)CCCC1(C)C` (stereo not drawn), in assay [1], the Ratio Ki came out at 1.9. In addition, the pKi in assay [2] was 7.16; in assay [3], 7.44. Besides, the pEC50 with MCF7 [4] and in the assay with MCF7 [5] was less than 4.00 throughout.
`COc1cccc2c1CCCC2CCCN1CCN(C2CCCCC2)CC1` (stereo not drawn): the pEC50 in the assay with MCF7 [4] was 4.51; with MCF7 [5], 4.56.
As for `COc1ccc2c(CCCN3CCCCC3(C)C)cccc2c1`, the Ratio Ki in [1] was 0.09. The pKi in assay [2] was 7.03. The pEC50 in the assay on MCF7 [4] and in the assay with MCF7 [5] was less than 4.00 throughout.
`COc1ccc2c(CCCCN3CCCCC3(C)C)cccc2c1`: in [1], the Ratio Ki is 1.3. Moreover, in assay [2], the pKi is 7.54. For the same compound, the Activity in the assay with MCF7 [4] is on record as 18%; with MCF7 [5] it was 19%. The pEC50 in the assay with MCF7 [4] and in the assay with MCF7 [5] was 4.00 throughout.
Regarding `COc1ccc2c(c1)CCCC2CCCN1CCCCC1(C)C` (stereo not drawn), in [1], the Ratio Ki was 0.6. The compound further gave a pKi in assay [2] of 6.94. Besides, the pEC50 with MCF7 [4] and with MCF7 [5] was less than 4.00 throughout.
With `COc1ccc2c(c1)CCCC2CCCN1[C@H](C)CCC[C@@H]1C` (stereo partly drawn), the Ratio Ki in assay [1] was 0.8. For the same compound, the result (in the assay on MCF7 [7]; in assay [8]) was inactive. The values for the pKi in assay [2] and in [3] were 7.04 and 6.96, respectively. For the same compound, the pEC50 in the assay with MCF7 [4] and with MCF7 [5] was less than 4.00 in each case. Further, the result (in [9]; with MCF7 [10]) was Active.
In the case of `COc1ccc2c(CCCN3[C@H](C)CCC[C@@H]3C)cccc2c1`, the Ratio Ki in [1] was determined as 6.1. In addition, the result (in the assay with MCF7 [7]; in assay [8]; in [11]) was inactive. Besides, the pKi in [2] is 7.34; in [3], 8.13. In addition, the pEC50 in the assay with MCF7 [4] and in the assay on MCF7 [5] was less than 4.00 throughout. Moreover, the outcome (in assay [9]; with MCF7 [10]) was Active.
On to `c1ccc(CCN2CCCCC2)cc1`, for which the pEC50 with MCF7 [4] and with MCF7 [5] was less than 4.00 throughout. The outcome in the assay with MCF7 [12] was Active.
Regarding `CN1CCN(CCc2ccc(Cl)c(Cl)c2)CC1`, the pEC50 was 4.15 in the assay with MCF7 [4] and less than 4.00 in the assay with MCF7 [5].
For the compound `COc1ccc2c(CCCCN3C(C)(C)CCCC3(C)C)cccc2c1`, the Ratio Ki in assay [1] was 1. The pKi in assay [2] is 7.04; in assay [3], 7.05. In addition, the pEC50 with MCF7 [4] and with MCF7 [5] was less than 4.00 each time.
Regarding `COc1ccc2c(c1)CCCC2CCCN1C(C)(C)CCCC1(C)C` (stereo not drawn), the Ratio Ki in assay [1] came to 1.7. Further, the values for the pKi in assay [2] and in assay [3] were 6.19 and 6.43, respectively. The pEC50 in the assay with MCF7 [4] and in the assay with MCF7 [5] was less than 4.00 in each case.
For the compound `COc1ccc2c(c1)CCCC2CCCCN1[C@H](C)CCC[C@@H]1C` (stereo partly drawn), in assay [1], the Ratio Ki is 1.3. Further, the outcome (in the assay with MCF7 [7]; in assay [8]) was inactive. Further, the inhibition entry in assay [13] is “inactive”. For the same compound, the values for the pKi in assay [2] and in [3] were 7.95 and 8.06, respectively. This compound also registered an Activity in the assay on MCF7 [4] of 14%. Further, the pEC50 was 4.00 in the assay on MCF7 [4] and less than 4.00 with MCF7 [5]. Moreover, the outcome in the assay on MCF7 [10] was Active. For the same compound, in assay [14], the inhibition entry is “Active”.
Regarding `COc1ccc2c(CCCCN3[C@H](C)CCC[C@@H]3C)cccc2c1.Cl`, the Ratio Ki in assay [1] was 0.7. In addition, the result (in the assay on MCF7 [7]; in assay [8]) was inactive. The inhibition result with MCF7 [15] is “inactive”. The pKi in assay [2] is 7.86; in assay [3], 7.73. In addition, in the assay on MCF7 [16], the inhibition result is “Active”. Besides, the Activity in the assay with MCF7 [4] is listed as 12%; in the assay on MCF7 [5], 14%. Further, the pEC50 in the assay with MCF7 [4] and in the assay with MCF7 [5] was 4.00 in each case. Also, the outcome in assay [9] was Active.
The compound `Cc1ccccc1NC(=N)Nc1ccccc1C` [DITOLYLGUANIDINE] showed a pKi in [2] of 7.52.
`COc1ccc2c(c1)CCCC2CCCCN1CCCCC1(C)C` (stereo not drawn): the Ratio Ki in assay [1] was 9. The compound further gave a pKi in assay [2] of 7.53. The figures for the Activity in the assay with MCF7 [4] and in the assay on MCF7 [5] were 14% and 20%, respectively. Further, the pEC50 in the assay with MCF7 [4] and in the assay on MCF7 [5] was 4.00 each time.
